pIC50: −log10 of the molar value. Counter-ions that a name gives are not always drawn.
Tests used:
[1] = test system: paw edema induced by PLA2 from the diamond back cotton mouth snake (A. piscivorus piscivorus); assay: in vivo PLA2 murine paw edema assay (Example 75); design: species or system mouse (male CD-1); details: for ED50 at +10 min.: p.o., at +10 min after PLA2, standard drugs
Procedure: The ability of the compounds of the invention to inhibit paw edema induced by the exogenous administration of PLA2 is measured in the in vivo PLA2 murine paw edema assay.
The assay is carried out as follows:
Non-fasted, male CD-1 mice (8 weeks old; 31-36 grams) are placed in plastic boxes in groups of six. The right hind paw volume is measured using mercury plethysmography (zero time). Compounds are dosed orally (0.5 mL of 0.5% Tween-80) 1 or 3 hours prior to PLA2 injection or intravenously (0.2 mL in 0.3% dimethylsulfoxide/saline) 3 minutes prior to PLA2 injection. A solution of purified PLA2, from the diamond back cotton mouth snake (A. piscivorus piscivorus) is prepared in saline at a concentration of 6 mg/mL. Fifty (50) uL (0.3 mg) of this PLA2 solution is injected subcutaneously into the right hind paw with a plastic 1 mL plastic syringe (27 gauge, "1" needle). Paw volume of the injected paw is measured again at 10 minutes, 30 minutes and 60 minutes after PLA2 injection. Animals are euthanized with CO2 at the completion of the study.
The paw edema is calculated by subtracting the zero time volume from the volume recorded at each time period. Mean paw edema for each treatment group is then calculated and expressed as (mL±S.E.). Drug effects are expressed as a percent change from control (vehicle) values. Statistical significance is determined by a one-way analysis of variance with LSD comparison to control (p<0.05). ED50 's are determined using repression analysis.

[2] = test system: paw edema induced by PLA2 from the diamond back cotton mouth snake (A. piscivorus piscivorus); assay: in vivo PLA2 murine paw edema assay (Example 75); design: species or system mouse (male CD-1)
[3] = test system: synthesis of LTB4 by rat glycogen-elicited polymorphonuclear leukocytes (PMN); assay: inhibition of LTB4 synthesis by rat glycogen-elicited PMN (Example 72); assay type: cell-based, rat (female Wistar); details: Leukocyte, at 10 mM, negative number denotes potentiation
Excerpt: This is especially true with respect to 5,12-diHETE, which is also denoted as LTB4 lsee Ford-Hitchinson, J. Roy. Soc. Med., 74, 831 (1981)]. Compounds which inhibit the PLA2 -mediated release of arachidonic acid thereby effectively prevent the oxidation of arachidonic acid to the various leukotriene products via the lipoxygenase cascade. Accordingly, the specificity of action of PLA2 inhibitors can be determined by the activity of test compounds in this assay, which measures the ability of compounds to inhibit the synthesis of LTB4 by rat glycogen-elicited polymorphonuclear leukocytes (PMN) in the presence of exogenous substrate.
The assay is carded out as follows:
(§1) Rat polymorphonuclear leukocytes (PMNs) are obtained from female Wistar rats (150-200 g) which receive an injection of 6% glycogen (10 ml i.p.). Rats are sacrificed 18-24 hours post injection by CO2 asphyxiation and the elicited cells are harvested by peritoneal lavage using physiological saline (0.9% NaC1). The exudate is centrifuged at 400 ×g for 10 minutes. The supernatant fluid is discarded and the cell pellet is resuspended to a concentration of 2.0×10^7 cells/mL in HBSS containing Ca^++ and Mg^++ and 10 mM L-cysteine.
(§2) To 1 mL aliquots of cell suspension, test drugs or vehicle are added, then preincubated at 37° C. for 10 minutes. A23187 (1 mM), [^3 H]-AA (3.0 mCi/mL) and unlabeled AA (1 mM) are then added and the samples are further incubated for 10 minutes. The reaction is terminated by centrifugation and pelleting cells. Supernatants are then analyzed by HPLC analysis on a 15 cm×4.6 mm ID supelcosil LC-18 (Supelco)(3M) column, using a two solvent system at a flow rate of 1.4 mL total flow as follows:
Gradient: (system is equilibrated with Solvent A)
Percent solvent changes are accomplished in a linear fashion.
Injections: […] of each supernatant is injected directly onto column and ^3 H arachidonic acid metabolites are monitored using an on-line radioactivity detector (Ramona, IN/U S, Fairfield, NJ).
Standards: 10^4 -2.0×10^4 dpm of eicosanoids of interest are injected in […] EtOH cocktail.
Co-chromatography with standard [^3 H] leukotriene B4 (LTB4) in medium of stimulated PMN exposed to drug is compared to that found in medium of stimulated cells exposed to no drug, generating percent inhibition.
Results are expressed as percent inhibition at a given compound dose or as an IC50 value.

[4] = biological target: T1, human synovial fluid PLA2 (Homo sapiens, UniProt P14555); assay: in vitro isolated phospholipase A2 assay, human synovial fluid PLA2 (Example 74); assay type: biochemical; design: inhibition / % Inhibition, HSF (human synovial fluid): dose or concentration left out as unconfirmed; details: for pIC50: Table III, read-out: IC50 HSF (human synovial fluid)
T1 sequence (P14555 21-144): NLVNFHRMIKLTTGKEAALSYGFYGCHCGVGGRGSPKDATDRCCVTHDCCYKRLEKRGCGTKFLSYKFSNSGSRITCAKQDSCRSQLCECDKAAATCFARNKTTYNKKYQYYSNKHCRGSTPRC
Procedure, shortened: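 Human synovial fluid PLA2 (purified) acts on ³H-arachidonate-labelled E. coli substrate, 10 minutes at 37° C with shaking; stopped with tetrahydrofuran. Released arachidonic acid is isolated on NH2 columns, eluted with tetrahydrofuran/2% acetic acid and quantitated by β-counting against a total-counts sample.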

[5] = test system: cyclooxygenase (PGE2 synthesis) in rat polymorphonuclear leukocytes (PMN); assay: inhibition of PGE2 synthesis (cyclooxygenase) by rat glycogen-elicited PMN (Example 73); assay type: cell-based, rat (female Wistar); details: Leukocyte, at 10 mM, * (negative) denotes a potentiation, read-out: % Inhibition (PGE2 synthesis)
Procedure: as §1, §2
In this assay, the procedure of Example 72 is carried out as described. However, in order to determine cyclooxygenase activity, the samples are cochromatographed with authentic reference [^3 H]-PGE2.
The results be calculated as in Example 72 and presented below: […]

human platelet PLA2 = biological target: T2, human platelet PLA2 (Homo sapiens, UniProt P14555); assay: in vitro isolated phospholipase A2 assay, human platelet PLA2 (Example 74); assay type: biochemical; design: dose or concentration left out as unconfirmed; details: read-out: % Inhibition, HP (human platelet)
T2 construct: Semi-purified human platelet acid extract PLA2; from tissue; host or cells: human platelets (semi-purified acid extract)
T2 sequence (P14555 21-144): T1 sequence (P14555 21-144)
Procedure, shortened: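 Semi-purified human platelet acid-extract PLA2 (pH 4.5 acetate) was incubated with ³H-arachidonate-labelled E. coli substrate for 10 min at 37° C. The reaction was terminated with tetrahydrofuran. Released arachidonic acid was isolated on NH2 columns and quantified by β-counting against total counts.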

[6] = biological target: T3, LTD4 (isolated guinea pig trachea) (Cavia porcellus, UniProt Q2NNR5); assay: in vitro isolated guinea pig trachea assay, LTD4 antagonism (Example 77); design: from tissue; host or cells: isolated trachea rings of male Hartley guinea pigs; species or system guinea pig (male Hartley); details: Table VII; 1 × 10^-5 M
T3 sequence (Q2NNR5 1-340): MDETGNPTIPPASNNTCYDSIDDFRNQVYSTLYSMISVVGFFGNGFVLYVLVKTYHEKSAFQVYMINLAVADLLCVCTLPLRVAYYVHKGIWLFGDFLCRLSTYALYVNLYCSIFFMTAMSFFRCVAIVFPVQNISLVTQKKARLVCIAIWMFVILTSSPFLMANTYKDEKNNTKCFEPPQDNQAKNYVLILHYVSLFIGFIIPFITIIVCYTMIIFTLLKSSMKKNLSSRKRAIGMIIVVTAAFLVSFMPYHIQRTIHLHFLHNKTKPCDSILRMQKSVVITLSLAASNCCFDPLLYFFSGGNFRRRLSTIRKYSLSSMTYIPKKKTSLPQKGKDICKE
Procedure: The LTD4 antagonist activity of the compounds of the invention is assessed in the in vitro isolated guinea pig trachea assay. This assay is carried out as follows: Male Hartley guinea pigs (350-400 g) are euthanized by a blow to the head, the neck is opened and the trachea removed. The trachea is maintained in aerated physiological salt solution, cleared of connective tissue and fat and cut into tings approximately 2 nxn in width (usually containing two cartilaginous segments per ting). Two pieces of silk suture are then passed through the lumen of the tracheal ring and are tied around the cartilage, one on each side of the trachealis muscle. The tracheal ting is suspended between a glass hook and a force […] transducer in a 10 mL organ bath for measurement of isometric tension. […] The tracheal […] maintained at 2 g resting tension and equilibrated for 45 minutes (with frequent washing and readjustment of resting tension). The tracheal rings are first contracted by the addition of carbachol (3×10^-6 M), to determine tissue responsiveness and establish a reference contraction. On attainment of a stable level of contraction (approximately 30 minutes), the tissues are washed several times until baseline tension has been restored and then re-equilibrated for 30 minutes. The tissues are then incubated for 45 minutes with a test antagonist (either 1×10^-6 M or 1×10^-5 M) or […] of an appropriate solvent control (control, non-treated). One tissue in each group serves as the control. Twenty minutes prior to the construction of the LTD4 cumulative concentration-response curve, L-[…]×10^-2 M final bath concentration) is added to inhibit bioconversion of LTD4 to LTE4. Only one LTD4 concentration-response curve is constructed in each tissue. All responses to LTD4 in an individual tissue are measured as a percentage of the reference contraction of that tissue to carbachol. LTD4 antagonist activity is determined by comparison of the concentration response curves of LTD4 in the presence and absence of antagonist. Assessment of the relative rightward shift of the antagonist treated curve relative to the solvent (control) treated tissue is calculated as a concentration ratio (Eq. A) and used in subsequent calculations to derive an antagonist pKB value (Eqs B and C). […] If a compound is found to be active and/or depress the maximal response to LTD4, then a range of concentrations of the test compound should be used generating multiple concentration ratios which would then be used to perform a Schild analysis, and determination of a pA2 value where appropriate.

## COc1cccc2c1cc([N+](=O)[O-])c1c(C(=O)O)cc3c(c12)OCO3 [Aristolochic Acid, reference compound]
[1]
  ED50 at +10 min.: Not Active

## C[C@@H]1C[C@H]2[C@@H]3CCC4=CC(=O)C=C[C@]4(C)[C@@]3(F)[C@@H](O)C[C@]2(C)[C@@]1(O)C(=O)CO [Dexamethasone]
[2]; p.o. 3 hr, at +10 min after PLA2
  ED50 at +10 min.: 10 mg/kg

## CC1=C(CC(=O)O)c2cc(OCc3ccc4ccccc4n3)ccc2/C1=C\c1ccc(Cl)cc1 [Example 1, 3-[(4-Chlorophenyl)methylene]-[2-methyl-6-(2-quinolinylmethoxy)]-3H-indene-1-acetic acid]
[1]; 10 mg/kg i.v., 10 min
  % Change in Edema: -6%
[1]; 10 mg/kg i.v., 30 min
  % Change in Edema: -9%
[1]; 10 mg/kg i.v., 60 min
  % Change in Edema: -40%
[1]; 100 mg/kg p.o., 10 min
  % Change in Edema: +4%
[1]; 100 mg/kg p.o., 30 min
  % Change in Edema: -27%
[1]; 100 mg/kg p.o., 60 min
  % Change in Edema: -6%
[3]
  inhibition at 10000 µM: 96%
[4]
  pIC50: 5.01
[5]
  inhibition at 10000 µM: 81%

## CSc1ccc(/C=C2/C(C)=C(CC(=O)O)c3cc(OCc4ccc5ccccc5n4)ccc32)cc1 [Example 2, 2-Methyl-3-[[4-(methylthio)phenyl]methylene]-6-(2-quinolinylmethoxy)-3H-indene-1-acetic acid]
[1]; 10 mg/kg i.v., 10 min
  % Change in Edema: -39%
[1]; 10 mg/kg i.v., 30 min
  % Change in Edema: -43%
[1]; 10 mg/kg i.v., 60 min
  % Change in Edema: -37%
[1]; 100 mg/kg p.o., 10 min
  % Change in Edema: -6%
[1]; 100 mg/kg p.o., 30 min
  % Change in Edema: -22%
[1]; 100 mg/kg p.o., 60 min
  % Change in Edema: +18%
[3]
  inhibition at 10000 µM: 96%
[4]
  pIC50: 5.44
[5]
  inhibition at 10000 µM: 92%

## CCCCCCOc1ccc2c(c1)c(CC(=O)O)c(C)n2Cc1ccc(Cl)cc1 [Example 19, 1-[(4-Chlorophenyl)methyl]-5-(hexyloxy)-2-methyl-1H-indole-3-acetic acid]
[2]; 30 mg/kg i.p., 30 min
  % Change in Edema: -30%
[2]; 60 mg/kg i.p., 30 min
  % Change in Edema: -34%
Human platelet PLA2
  inhibition: 71%
[4]; read-out: % Inhibition, HSF (human synovial fluid)
  inhibition: 45%

## Cc1c(CC(=O)O)c2cc(OCc3ccc4ccccc4n3)ccc2n1Cc1ccc(Cl)cc1 [Example 43, 1-[(4-Chlorophenyl)methyl]-2-methyl-5-(2-quinolinylmethoxy)-1H-indole-acetic acid tromethamine salt hemi-ethanolate]
[6]
  Kb: 1 µM

## COc1ccc2cc([C@H](C)C(=O)O)ccc2c1 [Naproxen, reference compound]
[1]
  ED50 at +10 min.: 18 mg/kg

## COc1ccc2c(c1)c(CC(=O)O)c(C)n2C(=O)c1ccc(Cl)cc1 [indomethacin, reference compound]
[2]; 10 mg/kg p.o., 10 min
  % Change in Edema: -32%
[2]; 10 mg/kg p.o., 30 min
  % Change in Edema: -31%
[2]; 10 mg/kg p.o., 60 min
  % Change in Edema: -42%
[4]
  pIC50: 3.84

## Luffarrellolide [reference compound]
[1]
  ED50 at +10 min.: Not Active

From patent publication US5420289A, “Substituted indole-, indene-, pyranoindole- and tetrahydrocarbazole-alkanoic acid derivatives as inhibitors of PLA2 and lipoxygenase” (American Home Products Corporation, priority 1993, dated 1995)
